Reference: patent publication US7211572B2 (Japan Tobacco Inc., priority 2003, dated 2007)
Structures can show the parent of a compound that is named as a salt.

molecular target: T1, HIV integrase (Human immunodeficiency virus type 1 group M subtype B, UniProt P12497, F1332H); test: Determination of enzyme (HIV integrase) inhibitory activity; type: biochemical; conditions: recombinant HIV integrase (F185H), strand transfer ELISA, absorbance at 450 nm
T1 construct: HIV integrase full length gene; made in house; host or cells: Escherichia coli BL21(DE3), plasmid pET21a-INH
Procedure, shortened: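 Full-length integrase with F185H, expressed in E. coli and purified, was reacted for 60 min at 37 °C with compound and biotinylated donor DNA bound to streptavidin plates. Target DNA was added for 10 min, then anti-digoxigenin-peroxidase detection at A450; IC50 from % inhibition versus enzyme-free blank.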

| Compound | IC50 |
| --- | --- |
| CS(=O)(=O)Nc1cn2c(c(O)c1=O)C(=O)N(Cc1ccc(F)c(Cl)c1)CC2 [Example 353, N-[2-(3-chloro-4-fluorobenzyl)-9-hydroxy-1,8-dioxo-1,3,4,8-tetrahydro-2H-pyrido[1,2-a]pyrazin-7-yl]methanesulfonamide] | < 10 nM |
| CCCOc1ccc(CN2CCn3cc(-c4nccs4)c(=O)c(O)c3C2=O)cc1Cl [Example 354, 2-(3-chloro-4-propoxybenzyl)-9-hydroxy-7-(thiazol-2-yl)-3,4-dihydro-2H-pyrido[1,2-a]pyrazine-1,8-dione hydrochloride] | 10 to 100 nM |
| CC(C)Oc1ccc(CN2CCn3cc(-c4nccs4)c(=O)c(O)c3C2=O)cc1Cl [Example 355, 2-(3-chloro-4-isopropoxybenzyl)-9-hydroxy-7-(thiazol-2-yl)-3,4-dihydro-2H-pyrido[1,2-a]pyrazine-1,8-dione hydrochloride] | 10 to 100 nM |
| O=C1c2c(O)c(=O)c(-c3nccs3)cn2CCN1Cc1ccc(OCc2ccccc2)c(Cl)c1 [Example 356, 2-(4-benzyloxy-3-chlorobenzyl)-9-hydroxy-7-(thiazol-2-yl)-3,4-dihydro-2H-pyrido[1,2-a]pyrazine-1,8-dione hydrochloride] | 10 to 100 nM |
| CCCOc1cc(Cl)ccc1CN1CCn2cc(-c3nccs3)c(=O)c(O)c2C1=O [Example 357, 2-(4-chloro-2-propoxybenzyl)-9-hydroxy-7-(thiazol-2-yl)-3,4-dihydro-2H-pyrido[1,2-a]pyrazine-1,8-dione hydrochloride] | 10 to 100 nM |
| CC(C)Oc1cc(Cl)ccc1CN1CCn2cc(-c3nccs3)c(=O)c(O)c2C1=O [Example 358, 2-(4-chloro-2-isopropoxybenzyl)-9-hydroxy-7-(thiazol-2-yl)-3,4-dihydro-2H-pyrido[1,2-a]pyrazine-1,8-dione hydrochloride] | 10 to 100 nM |
| O=C1c2c(O)c(=O)c(-c3nccs3)cn2CCN1Cc1ccc(Cl)cc1OCc1ccccc1 [Example 359, 2-(2-benzyloxy-4-chlorobenzyl)-9-hydroxy-7-(thiazol-2-yl)-3,4-dihydro-2H-pyrido[1,2-a]pyrazine-1,8-dione hydrochloride] | 10 to 100 nM |
| Cn1ncnc1-c1cn2ccn(Cc3ccc(F)cc3)c(=O)c2c(O)c1=O [Example 360, 2-(4-fluorobenzyl)-9-hydroxy-7-(2-methyl-2H-1,2,4-triazol-3-yl)-2H-pyrido[1,2-a]pyrazine-1,8-dione hydrochloride] | < 10 nM |
| CNC(=O)c1cn2c(c(O)c1=O)C(=O)N(Cc1cccc(Cl)c1F)CC2 [Example 361, N-methyl-2-(3-chloro-2-fluorobenzyl)-9-hydroxy-1,8-dioxo-1,3,4,8-tetrahydro-2H-pyrido[1,2-a]pyrazine-7-carboxamide] | 10 to 100 nM |
| CCC(C)(C)C(=O)c1cn2c(c(O)c1=O)C(=O)N(Cc1cccc(Cl)c1)CC2 [Example 362, 2-(3-chlorobenzyl)-7-(2,2-dimethylbutyryl)-9-hydroxy-3,4-dihydro-2H-pyrido[1,2-a]pyrazine-1,8-dione] | 10 to 100 nM |
| O=C1c2c(O)c(=O)c(-c3ccccn3)cn2CCN1Cc1ccc(F)cc1 [Example 363, 2-(4-fluorobenzyl)-9-hydroxy-7-(pyridin-2-yl)-3,4-dihydro-2H-pyrido[1,2-a]pyrazine-1,8-dione hydrochloride] | 10 to 100 nM |
| O=c1c(-c2ccccn2)cn2ccn(Cc3cccc(Cl)c3F)c(=O)c2c1O [Example 364, 2-(3-chloro-2-fluorobenzyl)-9-hydroxy-7-(pyridin-2-yl)-2H-pyrido[1,2-a]pyrazine-1,8-dione hydrochloride] | < 10 nM |
| O=c1c(-c2ccccn2)cn2ccn(Cc3cccc(F)c3)c(=O)c2c1O [Example 365, 2-(3-fluorobenzyl)-9-hydroxy-7-(pyridin-2-yl)-2H-pyrido[1,2-a]pyrazine-1,8-dione hydrochloride] | 10 to 100 nM |
| CC(=O)Nc1cc(F)ccc1CN1CCn2cc(-c3nccs3)c(=O)c(O)c2C1=O [Example 366, N-{5-fluoro-2-[9-hydroxy-1,8-dioxo-7-(thiazol-2-yl)-1,3,4,8-tetrahydro-pyrido[1,2-a]pyrazin-2-ylmethyl]phenyl}acetamide hydrochloride] | 100 to 1000 nM |
| CC(C)(C)C(=O)c1cn2c(c(O)c1=O)C(=O)N(Cc1cccc(Cl)c1F)CC2 [Example 367, 2-(3-chloro-2-fluorobenzyl)-7-(2,2-dimethylpropionyl)-9-hydroxy-3,4-dihydro-2H-pyrido[1,2-a]pyrazine-1,8-dione hydrochloride] | 10 to 100 nM |
| O=C(O)c1cc(F)ccc1CN1CCn2cc(-c3nccs3)c(=O)c(O)c2C1=O [Example 368, 5-fluoro-2-[9-hydroxy-1,8-dioxo-7-(thiazol-2-yl)-1,3,4,8-tetrahydro-pyrido[1,2-a]pyrazin-2-ylmethyl]benzoic acid hydrochloride] | 10 to 100 nM |
| O=c1c(-c2ccccn2)cn2ccn(Cc3ccc(F)c(F)c3)c(=O)c2c1O [Example 369, 2-(3,4-difluorobenzyl)-9-hydroxy-7-(pyridin-2-yl)-2H-pyrido[1,2-a]pyrazine-1,8-dione hydrochloride] | < 10 nM |

| Compound | IC50 |
| --- | --- |
| CN(Cc1ccccc1)C(=O)c1cn2c(c(O)c1=O)C(=O)N(Cc1cccc(Cl)c1)CC2 [Example 370, N-benzyl-N-methyl-2-(3-chlorobenzyl)-9-hydroxy-1,8-dioxo-1,3,4,8-tetrahydro-2H-pyrido[1,2-a]pyrazine-7-carboxamide hydrochloride] | < 10 nM |
| O=C(NCc1cccnc1)c1cn2c(c(O)c1=O)C(=O)N(Cc1cccc(Cl)c1)CC2 [Example 371, N-(pyridin-3-ylmethyl)-2-(3-chlorobenzyl)-9-hydroxy-1,8-dioxo-1,3,4,8-tetrahydro-2H-pyrido[1,2-a]pyrazine-7-carboxamide hydrochloride] | 10 to 100 nM |
| O=C(NCc1ccccn1)c1cn2c(c(O)c1=O)C(=O)N(Cc1cccc(Cl)c1)CC2 [Example 372, N-(pyridin-2-ylmethyl)-2-(3-chlorobenzyl)-9-hydroxy-1,8-dioxo-1,3,4,8-tetrahydro-2H-pyrido[1,2-a]pyrazine-7-carboxamide hydrochloride] | 10 to 100 nM |
| O=C1c2c(O)c(=O)c(-c3ccccn3)cn2CCN1Cc1ccc(Cl)c(Cl)c1 [Example 373, 2-(3,4-dichlorobenzyl)-9-hydroxy-7-(pyridin-2-yl)-3,4-dihydro-2H-pyrido[1,2-a]pyrazine-1,8-dione trifluoroacetate] | < 10 nM |
| CC(=O)CNC(=O)c1cn2c(c(O)c1=O)C(=O)N(Cc1cccc(Cl)c1)CC2 [Example 374, N-(2-oxopropyl)-2-(3-chlorobenzyl)-9-hydroxy-1,8-dioxo-1,3,4,8-tetrahydro-2H-pyrido[1,2-a]pyrazine-7-carboxamide hydrochloride] | 10 to 100 nM |
| O=c1c(-c2ccncc2)cn2ccn(Cc3cccc(F)c3)c(=O)c2c1O [Example 375, 2-(3-fluorobenzyl)-9-hydroxy-7-(pyridin-4-yl)-2H-pyrido[1,2-a]pyrazine-1,8-dione hydrochloride] | 10 to 100 nM |
| CC(C)(C)C(=O)c1cn2ccn(Cc3cccc(F)c3)c(=O)c2c(O)c1=O [Example 376, 7-(2,2-dimethylpropionyl)-2-(3-fluorobenzyl)-9-hydroxy-2H-pyrido[1,2-a]pyrazine-1,8-dione hydrochloride] | 10 to 100 nM |
| O=C(NCc1ccccc1F)c1cn2c(c(O)c1=O)C(=O)N(Cc1ccc(F)cc1)CC2 [Example 377, N-(2-fluorobenzyl)-2-(4-fluorobenzyl)-9-hydroxy-1,8-dioxo-1,3,4,8-tetrahydro-2H-pyrido[1,2-a]pyrazine-7-carboxamide] | < 10 nM |
| O=C(NCc1ccc(F)cc1)c1cn2c(c(O)c1=O)C(=O)N(Cc1ccc(F)cc1)CC2 [Example 378, N-(4-fluorobenzyl)-2-(4-fluorobenzyl)-9-hydroxy-1,8-dioxo-1,3,4,8-tetrahydro-2H-pyrido[1,2-a]pyrazine-7-carboxamide] | < 10 nM |
| CNC(=O)c1cn2c(c(O)c1=O)C(=O)N(Cc1ccc(F)cc1)CC2 [Example 379] | 100 to 1000 nM |
| O=C(NCc1ccccc1)c1cn2c(c(O)c1=O)C(=O)N(Cc1ccc(F)cc1)CC2 [Example 380, N-benzyl-2-(4-fluorobenzyl)-9-hydroxy-1,8-dioxo-1,3,4,8-tetrahydro-2H-pyrido[1,2-a]pyrazine-7-carboxamide] | 10 to 100 nM |
| CNC(=O)c1cn2c(c(O)c1=O)C(=O)N(Cc1ccc(Cl)cc1)CC2 [Example 381, N-methyl-2-(4-chlorobenzyl)-9-hydroxy-1,8-dioxo-1,3,4,8-tetrahydro-2H-pyrido[1,2-a]pyrazine-7-carboxamide] | 10 to 100 nM |
| CCC(C)(C)C(=O)c1cn2ccn(Cc3ccc(F)cc3)c(=O)c2c(O)c1=O [Example 382, 7-(2,2-dimethylbutyryl)-2-(4-fluorobenzyl)-9-hydroxy-2H-pyrido[1,2-a]pyrazine-1,8-dione hydrochloride] | 10 to 100 nM |
| O=C1c2c(O)c(=O)c(-c3cnccn3)cn2CCN1Cc1ccc(Cl)c(Cl)c1 [Example 383, 2-(3,4-dichlorobenzyl)-9-hydroxy-7-(pyrazin-2-yl)-3,4-dihydro-2H-pyrido[1,2-a]pyrazine-1,8-dione hydrochloride] | 10 to 100 nM |
| CC(C)C(=O)c1cn2c(c(O)c1=O)C(=O)N(Cc1ccc(Cl)c(Cl)c1)CC2 [Example 384, 2-(3,4-dichlorobenzyl)-9-hydroxy-7-isobutyryl-3,4-dihydro-2H-pyrido[1,2-a]pyrazine-1,8-dione] | < 10 nM |
| CC(C)C(=O)c1cn2c(c(O)c1=O)C(=O)N(Cc1ccc(F)cc1)CC2 [Example 385, 2-(4-fluorobenzyl)-9-hydroxy-7-isobutyryl-3,4-dihydro-2H-pyrido[1,2-a]pyrazine-1,8-dione] | 10 to 100 nM |
| CC(C)(C)C(=O)c1cn2c(c(O)c1=O)C(=O)N(Cc1ccc(F)cc1)CC2 [Example 386, 7-(2,2-dimethylpropionyl)-2-(4-fluorobenzyl)-9-hydroxy-3,4-dihydro-2H-pyrido[1,2-a]pyrazine-1,8-dione] | 10 to 100 nM |
